Measured values as given in patent US8067454B2, “Thio-substituted Anthra [1, 2-d] imidazole- 6, 11-dione derivatives, preparation method and application thereof” (National Defense Medical Center, priority 2010, dated 2011).

Tests used:
[1] = system: SF-268; assay: NCI 60-cell drug screen, CNS Cancer SF-268; assay type: cell-based, human; conditions: 1.00E−5 Molar
[2] = system: UO-31; assay: NCI 60-cell drug screen, Renal Cancer UO-31; assay type: cell-based, human; conditions: 1.00E−5 Molar
[3] = system: SVG p12; assay: MTT assay, SVG p12 normal cell; conditions: concentration 10 μM, normal cell
[4] = system: NCI-H226; assay: NCI 60-cell drug screen, Non-Small Cell Lung Cancer NCI-H226; assay type: cell-based, human; conditions: 1.00E−5 Molar
[5] = system: SK-MEL-5; assay: NCI 60-cell drug screen, Melanoma SK-MEL-5; assay type: cell-based, human; conditions: 1.00E−5 Molar
[6] = system: 786-0; assay: NCI 60-cell drug screen, Renal Cancer 786-0; assay type: cell-based, human; conditions: 1.00E−5 Molar
[7] = system: MDA-MB-435; assay: NCI 60-cell drug screen, Melanoma MDA-MB-435; assay type: cell-based, human; conditions: 1.00E−5 Molar
[8] = system: HOP-62; assay: NCI 60-cell drug screen, Non-Small Cell Lung Cancer HOP-62; assay type: cell-based, human; conditions: 1.00E−5 Molar
[9] = system: SNB-75; assay: NCI 60-cell drug screen, CNS Cancer SNB-75; assay type: cell-based, human; conditions: 1.00E−5 Molar
[10] = system: ACHN; assay: NCI 60-cell drug screen, Renal Cancer ACHN; assay type: cell-based, human; conditions: 1.00E−5 Molar
[11] = system: MALME-3M; assay: NCI 60-cell drug screen, Melanoma MALME-3M; assay type: cell-based, human; conditions: 1.00E−5 Molar
[12] = system: GBM8901; assay: MTT assay, GBM8901 tumor cell; conditions: for Cell survival rate (%) GBM8901: concentration 10 μM, tumor cell
[13] = system: RXF 393; assay: NCI 60-cell drug screen, Renal Cancer RXF 393; assay type: cell-based, human; conditions: 1.00E−5 Molar
[14] = system: SK-OV-3; assay: NCI 60-cell drug screen, Ovarian Cancer SK-OV-3; assay type: cell-based, human; conditions: 1.00E−5 Molar
[15] = system: UACC-62; assay: NCI 60-cell drug screen, Melanoma UACC-62; assay type: cell-based, human; conditions: 1.00E−5 Molar
[16] = system: SF-295; assay: NCI 60-cell drug screen, CNS Cancer SF-295; assay type: cell-based, human; conditions: 1.00E−5 Molar
[17] = system: GBM8401; assay: MTT assay, GBM8401 tumor cell; conditions: for Cell survival rate (%) GBM8401: concentration 10 μM, tumor cell
[18] = system: IGROV1; assay: NCI 60-cell drug screen, Ovarian Cancer IGROV1; assay type: cell-based, human; conditions: 1.00E−5 Molar
[19] = system: HL-60(TB); assay: NCI 60-cell drug screen, Leukemia HL-60(TB); assay type: cell-based, human; conditions: 1.00E−5 Molar
[20] = system: A549/ATCC; assay: NCI 60-cell drug screen, Non-Small Cell Lung Cancer A549/ATCC; assay type: cell-based, human; conditions: 1.00E−5 Molar
[21] = system: HCT-116; assay: NCI 60-cell drug screen, Colon Cancer HCT-116; assay type: cell-based, human; conditions: 1.00E−5 Molar
[22] = system: SR; assay: NCI 60-cell drug screen, Leukemia SR; assay type: cell-based, human; conditions: 1.00E−5 Molar
[23] = system: TK-10; assay: NCI 60-cell drug screen, Renal Cancer TK-10; assay type: cell-based, human; conditions: 1.00E−5 Molar
[24] = system: COLO 205; assay: NCI 60-cell drug screen, Colon Cancer COLO 205; assay type: cell-based, human; conditions: 1.00E−5 Molar
[25] = system: OVCAR-5; assay: NCI 60-cell drug screen, Ovarian Cancer OVCAR-5; assay type: cell-based, human; conditions: 1.00E−5 Molar
[26] = system: EKVX; assay: NCI 60-cell drug screen, Non-Small Cell Lung Cancer EKVX; assay type: cell-based, human; conditions: 1.00E−5 Molar
[27] = system: DU-145; assay: NCI 60-cell drug screen, Prostate Cancer DU-145; assay type: cell-based, human; conditions: 1.00E−5 Molar
[28] = system: MCF7; assay: NCI 60-cell drug screen, Breast Cancer MCF7; assay type: cell-based, human; conditions: 1.00E−5 Molar
[29] = system: A498; assay: NCI 60-cell drug screen, Renal Cancer A498; assay type: cell-based, human; conditions: 1.00E−5 Molar
[30] = system: SN12C; assay: NCI 60-cell drug screen, Renal Cancer SN12C; assay type: cell-based, human; conditions: 1.00E−5 Molar
[31] = system: SW-620; assay: NCI 60-cell drug screen, Colon Cancer SW-620; assay type: cell-based, human; conditions: 1.00E−5 Molar
[32] = system: M14; assay: NCI 60-cell drug screen, Melanoma M14; assay type: cell-based, human; conditions: 1.00E−5 Molar
[33] = system: NCI-H460; assay: NCI 60-cell drug screen, Non-Small Cell Lung Cancer NCI-H460; assay type: cell-based, human; conditions: 1.00E−5 Molar
[34] = system: NCI-H23; assay: NCI 60-cell drug screen, Non-Small Cell Lung Cancer NCI-H23; assay type: cell-based, human; conditions: 1.00E−5 Molar
[35] = system: K-562; assay: NCI 60-cell drug screen, Leukemia K-562; assay type: cell-based, human; conditions: 1.00E−5 Molar
[36] = system: RPMI-8226; assay: NCI 60-cell drug screen, Leukemia RPMI-8226; assay type: cell-based, human; conditions: 1.00E−5 Molar
[37] = system: LOX IMVI; assay: NCI 60-cell drug screen, Melanoma LOX IMVI; assay type: cell-based, human; conditions: 1.00E−5 Molar
[38] = system: MOLT-4; assay: NCI 60-cell drug screen, Leukemia MOLT-4; assay type: cell-based, human; conditions: 1.00E−5 Molar
[39] = system: HCT-15; assay: NCI 60-cell drug screen, Colon Cancer HCT-15; assay type: cell-based, human; conditions: 1.00E−5 Molar
[40] = system: OVCAR-4; assay: NCI 60-cell drug screen, Ovarian Cancer OVCAR-4; assay type: cell-based, human; conditions: 1.00E−5 Molar
[41] = system: BT-549; assay: NCI 60-cell drug screen, Breast Cancer BT-549; assay type: cell-based, human; conditions: 1.00E−5 Molar
[42] = system: SK-MEL-28; assay: NCI 60-cell drug screen, Melanoma SK-MEL-28; assay type: cell-based, human; conditions: 1.00E−5 Molar
[43] = system: NCI-H322M; assay: NCI 60-cell drug screen, Non-Small Cell Lung Cancer NCI-H322M; assay type: cell-based, human; conditions: 1.00E−5 Molar
[44] = system: MDA-MB-231/ATCC; assay: NCI 60-cell drug screen, Breast Cancer MDA-MB-231/ATCC; assay type: cell-based, human; conditions: 1.00E−5 Molar
[45] = system: SK-MEL-2; assay: NCI 60-cell drug screen, Melanoma SK-MEL-2; assay type: cell-based, human; conditions: 1.00E−5 Molar
[46] = system: SF-539; assay: NCI 60-cell drug screen, CNS Cancer SF-539; assay type: cell-based, human; conditions: 1.00E−5 Molar
[47] = system: PC-3; assay: NCI 60-cell drug screen, Prostate Cancer PC-3; assay type: cell-based, human; conditions: 1.00E−5 Molar
[48] = system: U251; assay: NCI 60-cell drug screen, CNS Cancer U251; assay type: cell-based, human; conditions: 1.00E−5 Molar
[49] = system: NCI-H522; assay: NCI 60-cell drug screen, Non-Small Cell Lung Cancer NCI-H522; assay type: cell-based, human; conditions: 1.00E−5 Molar
[50] = system: SNB-19; assay: NCI 60-cell drug screen, CNS Cancer SNB-19; assay type: cell-based, human; conditions: 1.00E−5 Molar
[51] = system: KM12; assay: NCI 60-cell drug screen, Colon Cancer KM12; assay type: cell-based, human; conditions: 1.00E−5 Molar
[52] = system: HOP-92; assay: NCI 60-cell drug screen, Non-Small Cell Lung Cancer HOP-92; assay type: cell-based, human; conditions: 1.00E−5 Molar
[53] = system: HCC-2998; assay: NCI 60-cell drug screen, Colon Cancer HCC-2998; assay type: cell-based, human; conditions: 1.00E−5 Molar

O=C1c2ccccc2C(=O)c2c1ccc1nc(SCCN3CCCC3)[nH]c21 [f1-11]
Growth Percent, SF-268 [1]: 42.04%
Growth Percent, UO-31 [2]: 21.22%
Cell survival rate (%) SVG p12 [3]: 98 ± 1%
Growth Percent, NCI-H226 [4]: 88.06%
Growth Percent, SK-MEL-5 [5]: 78.52%
Growth Percent, 786-0 [6]: 77.12%
Growth Percent, MDA-MB-435 [7]: 66.47%
Growth Percent, HOP-62 [8]: 73.74%
Growth Percent, SNB-75 [9]: 81.75%
Growth Percent, ACHN [10]: 34.58%
Growth Percent, MALME-3M [11]: 112.31%
Cell survival rate (%) GBM8901 [12]: 18 ± 2%
Growth Percent, RXF 393 [13]: 22.62%
Growth Percent, SK-OV-3 [14]: 55.57%
Growth Percent, UACC-62 [15]: 80.95%
Growth Percent, SF-295 [16]: 76.91%
Cell survival rate (%) GBM8401 [17]: 78 ± 10%
Growth Percent, IGROV1 [18]: 23.20%
Growth Percent, HL-60(TB) [19]: 37.41%
Growth Percent, A549/ATCC [20]: 35.52%
Growth Percent, HCT-116 [21]: 38.81%
Growth Percent, SR [22]: 20.25%
Growth Percent, TK-10 [23]: 36.86%
Growth Percent, COLO 205 [24]: 17.13%
Growth Percent, OVCAR-5 [25]: 87.49%
Growth Percent, EKVX [26]: 73.04%
Growth Percent, DU-145 [27]: 17.91%
Growth Percent, MCF7 [28]: 30.88%
Growth Percent, A498 [29]: 71.37%
Growth Percent, SN12C [30]: 52.94%
Growth Percent, SW-620 [31]: 22.75%
Growth Percent, M14 [32]: 70.87%
Growth Percent, NCI-H460 [33]: 34.08%
Growth Percent, NCI-H23 [34]: 66.93%
Growth Percent, K-562 [35]: 26.94%
Growth Percent, RPMI-8226 [36]: −60.17%
Growth Percent, LOX IMVI [37]: 11.89%
Growth Percent, MOLT-4 [38]: 30.94%
Growth Percent, HCT-15 [39]: 40.36%
Growth Percent, OVCAR-4 [40]: 57.23%
Growth Percent, BT-549 [41]: 78.62%
Growth Percent, SK-MEL-28 [42]: 100.23%
Growth Percent, NCI-H322M [43]: 73.18%
Growth Percent, MDA-MB-231/ATCC [44]: 63.52%
Growth Percent, SK-MEL-2 [45]: 106.62%
Growth Percent, SF-539 [46]: 62.25%
Growth Percent, PC-3 [47]: 6.90%
Growth Percent, U251 [48]: 69.07%
Growth Percent, NCI-H522 [49]: 81.51%
Growth Percent, SNB-19 [50]: 60.47%
Growth Percent, KM12 [51]: 19.62%
Growth Percent, HOP-92 [52]: 35.17%
Growth Percent, HCC-2998 [53]: 71.50%

O=C1c2ccccc2C(=O)c2c1ccc1nc3n(c21)CCS3 [f3-1, 2-(2-N-ethylthio)-1H-anthra[1,2-d]imidazole-6,11-dione]
Growth Percent, SF-268 [1]: 56.15%
Growth Percent, UO-31 [2]: 45.79%
Cell survival rate (%) SVG p12 [3]: 62 ± 1%
Growth Percent, NCI-H226 [4]: 80.53%
Growth Percent, SK-MEL-5 [5]: 65.88%
Growth Percent, 786-0 [6]: 92.44%
Growth Percent, MDA-MB-435 [7]: 83.11%
Growth Percent, HOP-62 [8]: 85.26%
Growth Percent, SNB-75 [9]: 95.57%
Growth Percent, ACHN [10]: 59.35%
Growth Percent, MALME-3M [11]: 87.59%
Cell survival rate (%) GBM8901 [12]: 37 ± 4%
inhibitory effect against tumor cell GBM8901 ([12]; survival rate less than 80%): exhibited inhibitory effect against tumor cell GBM8901
Growth Percent, RXF 393 [13]: 46.50%
Growth Percent, SK-OV-3 [14]: 87.43%
Growth Percent, UACC-62 [15]: 73.06%
Growth Percent, SF-295 [16]: 78.56%
Cell survival rate (%) GBM8401 [17]: 42 ± 16%
inhibitory effect against tumor cell GBM8401 ([17]; survival rate less than 80%): exhibited inhibitory effect against tumor cell GBM8401
Growth Percent, IGROV1 [18]: 62.31%
Growth Percent, HL-60(TB) [19]: 78.84%
Growth Percent, A549/ATCC [20]: 81.15%
Growth Percent, HCT-116 [21]: 68.43%
Growth Percent, SR [22]: 60.62%
Growth Percent, TK-10 [23]: 58.78%
Growth Percent, COLO 205 [24]: 95.22%
Growth Percent, OVCAR-5 [25]: 105.31%
Growth Percent, EKVX [26]: 35.80%
Growth Percent, DU-145 [27]: 68.84%
Growth Percent, MCF7 [28]: 64.78%
Growth Percent, A498 [29]: 73.67%
Growth Percent, SN12C [30]: 74.93%
Growth Percent, SW-620 [31]: 69.29%
Growth Percent, M14 [32]: 78.50%
Growth Percent, NCI-H460 [33]: 59.46%
Growth Percent, NCI-H23 [34]: 84.29%
Growth Percent, K-562 [35]: 78.71%
Growth Percent, RPMI-8226 [36]: 71.65%
Growth Percent, LOX IMVI [37]: 65.93%
Growth Percent, MOLT-4 [38]: 58.39%
Growth Percent, HCT-15 [39]: 57.15%
Growth Percent, OVCAR-4 [40]: 89.29%
Growth Percent, BT-549 [41]: 87.90%
Growth Percent, SK-MEL-28 [42]: 109.36%
Growth Percent, NCI-H322M [43]: 72.06%
Growth Percent, MDA-MB-231/ATCC [44]: 94.00%
Growth Percent, SK-MEL-2 [45]: 99.88%
Growth Percent, SF-539 [46]: 74.06%
Growth Percent, PC-3 [47]: 93.92%
Growth Percent, U251 [48]: 72.48%
Growth Percent, NCI-H522 [49]: 80.62%
Growth Percent, SNB-19 [50]: 74.47%
Growth Percent, KM12 [51]: 84.88%
Growth Percent, HOP-92 [52]: 88.67%
Growth Percent, HCC-2998 [53]: 94.76%
